Measured values taken from patent US8067189B2, “Methods for determining sensitivity to vascular endothelial growth factor receptor-2 modulators by measuring the level of collagen type IV” (Bristol-Myers Squibb Company, priority 2005, dated 2011).

How the values were obtained:
[1] = system: Collagen type IV (COL4A1); assay: Immunohistochemistry of xenograft tumors; assay type: in vivo, mouse; details: treated xenograft tumors relative to un-treated tumors
Method: (§1) Tumors were propagated in nude mice as subcutaneous (sc) transplants using L2987 and HCT-116 cancer cell lines. Tumor passage occurred approximately every two to four weeks. Tumors were then allowed to grow to the pre-determined size window (100-200 mm^3, tumors outside the range were excluded) and animals were evenly distributed to various treatment and control groups. Animals were treated with the example VEGFR-2 inhibitor (100 mg/kg 1 qd×14 days). Treated animals were checked daily for treatment related toxicity/mortality. Each group of animals was weighed before the initiation of treatment (Wt1) and then again following the last treatment dose (Wt2). The difference in body weight (Wt2−Wt1) provided a measure of treatment-related toxicity. Tumor response was determined by measurement of tumors with a caliper twice a week, until the tumors reached a predetermined target size. Animals that were distributed to various treatment and control groups during the study were eventually sacrificed to obtain tumor and blood samples for genomic and protein analysis.
(§2) Tissue specimens collected for IHC were fixed by using 10% formalin. After fixation, the chemical fixative was discarded and the specimens were submerged in 70% ethanol before being embedded in paraffin blocks. Five micron tissue sections were cut from each block and placed on positively charged microscope slides. The tissue slides were de-paraffined by immersing in xylene. The slides were re-hydrated in 100% ethanol, 95% ethanol, and 70% ethanol. After re-hydration, the slides were washed several times with deionized water at room temperature. Multiple antigen retrieval conditions (Citra, Citra Plus, and AR10) were tested by use of the BioGenex EZ-retriever microwave to determine the best conditions. Staining optimization was performed in an automated BioGenex i6000 IHC system for each of the candidate marker antibodies independently. Both treated and un-treated xenografts were stained in the same run to minimize slide to slide variations. […]

[2] = system: complement component 1, q subcomponent, receptor 1 (C1qR1); assay: Immunohistochemistry of xenograft tumors; assay type: in vivo, mouse; details: treated xenograft tumors relative to un-treated tumors
Method: as §1, §2

[3] = system: angiotensin receptor-like 1 (AGTRL1); assay: Immunohistochemistry of xenograft tumors; assay type: in vivo, mouse; details: treated xenograft tumors relative to un-treated tumors
Method: as §1, §2

[4] = system: VEGFR-2 co-expressed biomarkers (mRNA levels in xenograft tumors); assay: Gene expression profiling (Affymetrix mouse 430A arrays) of un-treated vs treated xenograft tumors; assay type: in vivo
Method: as §1
The colon tumor samples obtained from cancer patients were snap frozen in liquid nitrogen within 20 minutes of resection and stored thereafter at −80° C. The mouse xenograft tumor samples were split into two halves. One half was mixed in a vial of 10% formalin to be used for IHC and the other half was mixed in 1.0 ml of RNAlater™ RNA Stabilization Reagent (Ambion, Inc., Austin, Tex.) held at room temperature for 30 minutes then stored at −80° C. Total RNA was extracted from the tumor samples using the RNeasy Kit™ (Qiagen, Valencia Calif.). At least 1 μg total RNA with a 260/280 ratio ≧1.8 by spectrophotometry (DU640 UV, Beckman Coulter, Fullerton, Calif.) was required for transcriptional profiling. Briefly, the tumor samples were homogenized in a lysis-binding solution supplied by Qiagen. An equal volume of ethanol was mixed into each sample, the mixture was passed through the filter cartridges provided, and the rest of the extraction protocol was followed (Ambion). RNA yield and quality were assessed on a standard 1% agarose gel. A ratio 28 s/18 s RNA in the range of 1.5 to 2.5 indicated high quality RNA that is free of degradation. RNA samples were stored at −80° C.
Transcriptional profiling was performed on the RNA obtained from the tumor samples. The Affymetrix GeneChip system (Affymetrix, Santa Clara, Calif.) was used for hybridization and scanning of the human U133A and mouse 430A arrays. Data were preprocessed using the MAS 5.0 software. Generation of cRNA followed a standard T7 amplification protocol. Total RNA was reverse-transcribed with SuperScript II (Gibco, Carlsbad, Calif.) in the presence of T7-(dT)24 primer to generate first strand cDNA. A second-strand cDNA synthesis was performed in the presence of DNA Polymerase I, DNA ligase, and RNase H (Gibco). The resulting double-stranded cDNA was blunt-ended using T4 DNA polymerase. This double-stranded cDNA was then transcribed into cRNA in the presence of biotin-ribonucleotides using the BioArray High Yield RNA transcript labeling kit (Enzo Life Sciences, Farmingdale, N.Y.). The amplified, biotin-labeled cRNA was purified using Qiagen RNeasy columns (Qiagen Sciences), quantified and fragmented at 94° C. for 35 minutes in the presence of fragmentation buffer (1×). Fragmented cRNA was hybridized to the Affymetrix U113A and 430A arrays overnight at 42° C. The arrays were then placed in the fluidics stations for staining and washing as recommended by Affymetrix protocols. The chips were scanned and raw intensity values were generated for each probe on the arrays.
The 94 co-expressed VEGFR-2 genes identified from human cancers profiled on U133A arrays were used to identify their corresponding mouse homolog from mouse xenografts tumors profiled on mouse 430A arrays. […]

## Cc1cc2c(F)c(Oc3ncnn4cc(OC[C@@H](C)OC(=O)[C@H](C)N)c(C)c34)ccc2[nH]1 [example VEGFR-2 inhibitor, [(1R),2S]-2-Aminopropionic acid 2-[4-(4-fluoro-2-methyl-1H-indol-5-yloxy)-5-methylpyrrolo[2,1-f][1,2,4]triazin-6-yloxy]-1-methylethyl ester]
[1]
  IHC staining of Collagen type IV (COL4A1) around tumor blood vessels following treatment: negative or lesser degree of staining
[2]
  IHC staining of C1qR1 around tumor blood vessels following treatment: negative or lesser degree of staining
[3]
  IHC staining of angiotensin receptor-like 1 (AGTRL1) around tumor blood vessels following treatment: negative or lesser degree of staining
[4]; mouse 430A probe 1416238_at, 100 mg/kg 1 qd×14 days, t-test P 0.00103262
  fold-change mRNA, Tie1: 11
[4]; mouse 430A probe 1417271_a_at, 100 mg/kg 1 qd×14 days, t-test P 0.021873085
  fold-change mRNA, endoglin (Eng): 2
[4]; mouse 430A probe 1417426_at, 100 mg/kg 1 qd×14 days, t-test P 0.034821585
  fold-change mRNA, Prg1: 2
[4]; mouse 430A probe 1418059_at, 100 mg/kg 1 qd×14 days, t-test P 0.018655985
  fold-change mRNA, Eltd1: 2
[4]; mouse 430A probe 1418788_at
  direction of change in mRNA levels, Tek: no
[4]; mouse 430A probe 1418788_at, 100 mg/kg 1 qd×14 days, t-test P 0.047098006
  fold-change mRNA, Tek: 1
[4]; mouse 430A probe 1419394_s_at
  direction of change in mRNA levels, S100a8: no
[4]; mouse 430A probe 1419394_s_at, 100 mg/kg 1 qd×14 days, t-test P 0.040857487
  fold-change mRNA, S100a8: 1
[4]; mouse 430A probe 1419589_at, 100 mg/kg 1 qd×14 days, t-test P 0.000005
  fold-change mRNA, C1qr1 (Ly68): 5
[4]; mouse 430A probe 1423037_at, 100 mg/kg 1 qd×14 days, t-test P 5.54812E−04
  fold-change mRNA, Agtrl1: 4
[4]; mouse 430A probe 1423516_a_at, 100 mg/kg 1 qd×14 days, t-test P 0.024126268
  fold-change mRNA, nidogen 2 (Nid2): 3
[4]; mouse 430A probe 1427986_a_at
  direction of change in mRNA levels, Col16a1: no
[4]; mouse 430A probe 1427986_a_at, 100 mg/kg 1 qd×14 days, t-test P 0.000014
  fold-change mRNA, Col4a1: 4
[4]; mouse 430A probe 1427986_a_at, 100 mg/kg 1 qd×14 days, t-test P 0.014896833
  fold-change mRNA, Col16a1: 1
[4]; mouse 430A probe 1433956_at, 100 mg/kg 1 qd×14 days, t-test P 0.001154369
  fold-change mRNA, VE-Cadherin (Cdh5): 2
[4]; mouse 430A probe 1434820_s_at
  direction of change in mRNA levels, Pkig: no
[4]; mouse 430A probe 1434820_s_at, 100 mg/kg 1 qd×14 days, t-test P 0.032286798
  fold-change mRNA, Pkig: 1
[4]; mouse 430A probe 1438651_a_at, 100 mg/kg 1 qd×14 days, t-test P 0.026038828
  fold-change mRNA, Agtrl1: 2
[4]; mouse 430A probe 1448942_at, 100 mg/kg 1 qd×14 days, t-test P 0.001326667
  fold-change mRNA, Gng11: 2
[4]; mouse 430A probe 1449145_a_at
  direction of change in mRNA levels, Cav1: no
[4]; mouse 430A probe 1449145_a_at, 100 mg/kg 1 qd×14 days, t-test P 2.72030E−04
  fold-change mRNA, Cav1: 1
[4]; mouse 430A probe 1449298_a_at
  direction of change in mRNA levels, Pde1a: no
[4]; mouse 430A probe 1449298_a_at, 100 mg/kg 1 qd×14 days, t-test P 0.025570996
  fold-change mRNA, Pde1a: 1
[4]; mouse 430A probe 1452035_at, 100 mg/kg 1 qd×14 days, t-test P 0.000018
  fold-change mRNA, Col4a1: 6
